Measured values as given in patent publication US9242933B2 (AbbVie Deutschland GmbH & Co. KG, priority 2007, dated 2016).

What follows are molecules tested against T1, human mGlu2 receptor (Homo sapiens, UniProt Q14416) (assay: FLIPR intracellular Ca2+ assay, potentiation of glutamate response in HEK293 clone expressing mGlu2 receptor, rGLAST and Galpha16). Conditions: 1 μM glutamate added ten minutes after test compound, HEK293 cells with human mGlu2, rGLAST, Galpha16, read-out: EC50 values of potentiation effect to glutamate.
T1 construct: expressed in transfected cells; host or cells: HEK293
T1 sequence (Q14416 19-872): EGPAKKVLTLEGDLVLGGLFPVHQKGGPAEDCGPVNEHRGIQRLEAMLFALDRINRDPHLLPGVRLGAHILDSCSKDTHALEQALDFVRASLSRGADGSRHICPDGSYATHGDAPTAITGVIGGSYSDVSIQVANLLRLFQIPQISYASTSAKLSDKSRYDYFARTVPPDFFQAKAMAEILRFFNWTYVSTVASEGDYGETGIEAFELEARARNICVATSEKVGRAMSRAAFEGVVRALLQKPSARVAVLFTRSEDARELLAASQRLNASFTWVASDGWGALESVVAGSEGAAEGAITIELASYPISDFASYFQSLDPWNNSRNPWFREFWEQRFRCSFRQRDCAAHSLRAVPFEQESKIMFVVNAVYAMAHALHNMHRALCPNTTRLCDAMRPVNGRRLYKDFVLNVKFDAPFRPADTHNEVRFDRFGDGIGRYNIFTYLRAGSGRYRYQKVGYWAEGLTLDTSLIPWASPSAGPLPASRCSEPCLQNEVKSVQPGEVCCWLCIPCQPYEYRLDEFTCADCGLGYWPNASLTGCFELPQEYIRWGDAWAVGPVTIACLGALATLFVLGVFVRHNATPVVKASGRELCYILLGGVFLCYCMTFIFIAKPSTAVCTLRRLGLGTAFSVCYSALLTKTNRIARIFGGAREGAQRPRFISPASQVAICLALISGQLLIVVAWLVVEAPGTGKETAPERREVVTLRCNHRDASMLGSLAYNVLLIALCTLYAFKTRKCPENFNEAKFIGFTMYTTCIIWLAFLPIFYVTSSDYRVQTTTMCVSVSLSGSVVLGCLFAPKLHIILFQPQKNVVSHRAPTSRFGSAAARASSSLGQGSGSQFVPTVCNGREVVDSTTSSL
Assay type: cell-based
How it was run: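 HEK293 cells stably expressing human mGlu2, rat GLAST and Gα16 were loaded with 2 µM Fluo-4 AM and intracellular Ca2+ read by FLIPR. Compound added alone (agonism), then with submaximal glutamate (e.g. 1 µM; potentiation). Background-subtracted peaks normalized to 100 µM glutamate response; EC50 from four-parameter fit.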

EC50 [nM]	Structure (SMILES)
< 1000	CCN1Cc2cc(OCc3c[nH]nc3-c3ccc(F)cc3)ccc2C1=O [Example 559, 2-Ethyl-5-[3-(4-fluorophenyl)-1H-pyrazol-4-ylmethoxy]-2,3-dihydro-isoindol-1-one]
< 1000	CCN1Cc2cc(OCc3c[nH]nc3-c3cccc(F)c3)ccc2C1=O [Example 560, 2-Ethyl-5-[3-(3-fluorophenyl)-1H-pyrazol-4-ylmethoxy]-2,3-dihydro-isoindol-1-one]
< 1000	CCN1Cc2cc(OCc3c[nH]nc3-c3ccc(Cl)cc3)ccc2C1=O [Example 562, 5-[3-(4-Chloro-phenyl)-1H-pyrazol-4-ylmethoxy]-2-ethyl-2,3-dihydro-isoindol-1-one]
< 1000	CCN1Cc2cc(OCc3c[nH]nc3-c3ccccc3)ccc2C1=O [Example 563, 2-Ethyl-5-(3-phenyl-1H-pyrazol-4-ylmethoxy)-2,3-dihydro-isoindol-1-one]
< 1000	O=C1c2ccc(OCc3c[nH]nc3-c3ccc(C(F)(F)F)cc3)cc2CN1CC(F)F [Example 566, 2-(2,2-Difluoro-ethyl)-5-[3-(4-trifluoromethyl-phenyl)-1H-pyrazol-4-ylmethoxy]-2,3-dihydro-isoindol-1-one]
< 1000	O=C1c2ccc(OCc3c[nH]nc3-c3ccccc3)cc2CN1CC(F)F [Example 567, 2-(2,2-Difluoro-ethyl)-5-(3-phenyl-1H-pyrazol-4-ylmethoxy)-2,3-dihydro-isoindol-1-one]
< 1000	O=C1c2ccc(OCc3c[nH]nc3-c3ccc(C(F)(F)F)cc3)cc2CN1CC(F)(F)F [Example 568, 2-(2,2,2-Trifluoro-ethyl)-5-[3-(4-trifluoromethyl-phenyl)-1H-pyrazol-4-ylmethoxy]-2,3-dihydro-isoindol-1-one]
< 1000	O=C1c2ccc(OCc3c[nH]nc3-c3cccc(C(F)(F)F)c3)cc2CN1CC(F)(F)F [Example 569, 2-(2,2,2-Trifluoro-ethyl)-5-[3-(3-trifluoromethyl-phenyl)-1H-pyrazol-4-ylmethoxy]-2,3-dihydro-isoindol-1-one]
< 1000	O=C1c2ccc(OCc3c[nH]nc3-c3ccc(F)cc3)cc2CN1CC(F)(F)F [Example 570, 5-[3-(4-Fluorophenyl)-1H-pyrazol-4-ylmethoxy]-2-(2,2,2-trifluoro-ethyl)-2,3-dihydro-isoindol-1-one]
< 1000	O=C1c2ccc(OCc3c[nH]nc3-c3cccc(F)c3)cc2CN1CC(F)(F)F [Example 571, 5-[3-(3-Fluorophenyl)-1H-pyrazol-4-ylmethoxy]-2-(2,2,2-trifluoro-ethyl)-2,3-dihydro-isoindol-1-one]
< 1000	CN1Cc2cc(OCc3c[nH]nc3-c3ccc(C(F)(F)F)cc3)ccc2C1=O [Example 573, 2-Methyl-5-[3-(4-trifluoromethyl-phenyl)-1H-pyrazol-4-ylmethoxy]-2,3-dihydro-isoindol-1-one]
< 1000	CCCN1CCc2cc(OCc3c[nH]nc3-c3ccc(C(F)(F)F)cc3)ccc2C1=O [Example 574, 2-Propyl-6-[3-(4-trifluoromethyl-phenyl)-1H-pyrazol-4-ylmethoxy]-3,4-dihydro-2H-isoquinolin-1-one]
< 1000	CCCN1Cc2cc(NCc3c[nH]nc3-c3ccc(Cl)cc3)ccc2C1=O [Example 576, 5-{[3-(4-Chloro-phenyl)-1H-pyrazol-4-ylmethyl]-amino}-2-propyl-2,3-dihydro-isoindol-1-one]

Structure (SMILES)	EC50 [nM]
O=C1c2ccc(OCc3c[nH]nc3-c3ccc(C(F)(F)F)cc3)cc2CN1CCBr [Example 564, 2-(2-Bromo-ethyl)-5-[3-(4-trifluoromethyl-phenyl)-1H-pyrazol-4-ylmethoxy]-2,3-dihydro-isoindol-1-one]	< 1000
O=C1c2ccc(OCc3c[nH]nc3-c3cccc(C(F)(F)F)c3)cc2CN1CCBr [Example 565, 2-(2-Bromo-ethyl)-5-[3-(3-trifluoromethyl-phenyl)-1H-pyrazol-4-ylmethoxy]-2,3-dihydro-isoindol-1-one]	< 1000
